In ChEMBL document CHEMBL2440076, “New triarylpyrazoles as broad-spectrum anticancer agents: design, synthesis, and biological evaluation” (Eur J Med Chem, 2013):

Columns and labels:
Format in all cases: functional
[1] = tested on: DU-145; assay: Growth inhibition of human DU145 cells assessed as cell growth at 5X10'-6 M after 48 hrs by sulforhodamine B assay; settings: DU-145, 48 h, read-out: Activity
[2] = tested on: SNB-75; assay: Growth inhibition of human SNB75 cells assessed as cell growth at 5X10'-6 M after 48 hrs by sulforhodamine B assay; settings: SNB-75, 48 h, read-out: Activity
[3] = tested on: 786-0; assay: Growth inhibition of human 786-0 cells assessed as cell growth at 3X10'-7 M after 48 hrs by sulforhodamine B assay; settings: 786-0, 48 h, read-out: Activity
[4] = tested on: MDA-MB-435; assay: Growth inhibition of human MDA-MB-435 cells assessed as cell growth at 3X10'-5 M after 48 hrs by sulforhodamine B assay; settings: MDA-MB-435, 48 h, read-out: Activity
[5] = tested on: RPMI-8226; assay: Growth inhibition of human RPMI8226 cells assessed as cell growth at 3X10'-6 M after 48 hrs by sulforhodamine B assay; settings: RPMI-8226, 48 h, read-out: Activity
[6] = tested on: CCRF-CEM; assay: Growth inhibition of human CCRF-CEM cells assessed as cell growth at 3X10'-5 M after 48 hrs by sulforhodamine B assay; settings: read-out: Activity
[7] = tested on: TK-10; assay: Growth inhibition of human TK10 cells assessed as cell growth at 3X10'-9 M after 48 hrs by sulforhodamine B assay; settings: TK-10, 48 h, read-out: Activity
[8] = tested on: 786-0; assay: Growth inhibition of human 786-0 cells assessed as cell growth at 3X10'-9 M after 48 hrs by sulforhodamine B assay; settings: 786-0, 48 h, read-out: Activity
[9] = tested on: NCI-H23; assay: Growth inhibition of human NCI-H23 cells assessed as cell growth at 3X10'-9 M after 48 hrs by sulforhodamine B assay; settings: NCI-H23, 48 h, read-out: Activity
[10] = Growth inhibition of human Hs 578T cells assessed as cell growth at 3X10'-8 M after 48 hrs by sulforhodamine B assay; settings: read-out: Activity
[11] = tested on: NCI-H23; assay: Growth inhibition of human NCI-H23 cells assessed as cell growth at 3X10'-7 M after 48 hrs by sulforhodamine B assay; settings: NCI-H23, 48 h, read-out: Activity
[12] = tested on: IGROV-1; assay: Growth inhibition of human IGROV1 cells assessed as cell growth at 3X10'-7 M after 48 hrs by sulforhodamine B assay; settings: IGROV-1, 48 h, read-out: Activity
[13] = tested on: K562; assay: Growth inhibition of human K562 cells assessed as cell growth at 3X10'-6 M after 48 hrs by sulforhodamine B assay; settings: K562, 48 h, read-out: Activity
[14] = tested on: SF-295; assay: Growth inhibition of human SF295 cells assessed as cell growth at 3X10'-5 M after 48 hrs by sulforhodamine B assay; settings: SF-295, 48 h, read-out: Activity
[15] = tested on: TK-10; assay: Growth inhibition of human TK10 cells assessed as cell growth at 3X10'-8 M after 48 hrs by sulforhodamine B assay; settings: TK-10, 48 h, read-out: Activity
[16] = tested on: HL-60(TB); assay: Growth inhibition of human HL-60(TB) cells assessed as cell growth at 3X10'-9 M after 48 hrs by sulforhodamine B assay; settings: HL-60, 48 h, read-out: Activity
[17] = tested on: SF-539; assay: Growth inhibition of human SF539 cells assessed as cell growth at 3X10'-7 M after 48 hrs by sulforhodamine B assay; settings: SF-539, 48 h, read-out: Activity
[18] = tested on: NCI-H460; assay: Growth inhibition of human NCI-H460 cells assessed as cell growth at 3X10'-7 M after 48 hrs by sulforhodamine B assay; settings: NCI-H460, 48 h, read-out: Activity
[19] = tested on: HCT-116; assay: Growth inhibition of human HCT116 cells assessed as cell growth at 3X10'-9 M after 48 hrs by sulforhodamine B assay; settings: HCT-116, 48 h, read-out: Activity
[20] = tested on: NCI-H23; assay: Growth inhibition of human NCI-H23 cells assessed as cell growth at 3X10'-8 M after 48 hrs by sulforhodamine B assay; settings: NCI-H23, 48 h, read-out: Activity
[21] = tested on: CCRF-CEM; assay: Growth inhibition of human CCRF-CEM cells assessed as cell growth at 3X10'-8 M after 48 hrs by sulforhodamine B assay; settings: read-out: Activity
[22] = tested on: A498; assay: Growth inhibition of human A498 cells assessed as cell growth at 3X10'-5 M after 48 hrs by sulforhodamine B assay; settings: A498, 48 h, read-out: Activity
[23] = tested on: 786-0; assay: Growth inhibition of human 786-0 cells assessed as cell growth at 3X10'-8 M after 48 hrs by sulforhodamine B assay; settings: 786-0, 48 h, read-out: Activity
[24] = tested on: MDA-MB-435; assay: Growth inhibition of human MDA-MB-435 cells assessed as cell growth at 3X10'-8 M after 48 hrs by sulforhodamine B assay; settings: MDA-MB-435, 48 h, read-out: Activity
[25] = tested on: SF-268; assay: Growth inhibition of human SF268 cells assessed as cell growth at 3X10'-8 M after 48 hrs by sulforhodamine B assay; settings: SF-268, 48 h, read-out: Activity
[26] = tested on: SK-OV-3; assay: Growth inhibition of human SKOV3 cells assessed as cell growth at 3X10'-9 M after 48 hrs by sulforhodamine B assay; settings: SK-OV-3, 48 h, read-out: Activity
[27] = tested on: COLO 205; assay: Growth inhibition of human COLO205 cells assessed as cell growth at 3X10'-5 M after 48 hrs by sulforhodamine B assay; settings: COLO 205, 48 h, read-out: Activity
[28] = tested on: LOX IMVI; assay: Growth inhibition of human LOXIMVI cells assessed as cell growth at 3X10'-7 M after 48 hrs by sulforhodamine B assay; settings: read-out: Activity
[29] = tested on: ACHN; assay: Growth inhibition of human ACHN cells assessed as cell growth at 3X10'-7 M after 48 hrs by sulforhodamine B assay; settings: read-out: Activity
[30] = tested on: KM12; assay: Growth inhibition of human KM12 cells assessed as cell growth at 3X10'-5 M after 48 hrs by sulforhodamine B assay; settings: KM12, 48 h, read-out: Activity
[31] = tested on: UO-31; assay: Growth inhibition of human UO31 cells assessed as cell growth at 3X10'-6 M after 48 hrs by sulforhodamine B assay; settings: UO-31, 48 h, read-out: Activity
[32] = tested on: RPMI-8226; assay: Growth inhibition of human RPMI8226 cells assessed as cell growth at 3X10'-9 M after 48 hrs by sulforhodamine B assay; settings: RPMI-8226, 48 h, read-out: Activity
[33] = Growth inhibition of human HCC2998 cells assessed as cell growth at 3X10'-5 M after 48 hrs by sulforhodamine B assay; settings: HCC 2998, 48 h, read-out: Activity
[34] = tested on: A498; assay: Growth inhibition of human A498 cells assessed as cell growth at 3X10'-7 M after 48 hrs by sulforhodamine B assay; settings: A498, 48 h, read-out: Activity
[35] = tested on: SW-620; assay: Growth inhibition of human SW620 cells assessed as cell growth at 3X10'-7 M after 48 hrs by sulforhodamine B assay; settings: SW-620, 48 h, read-out: Activity
[36] = tested on: HT-29; assay: Growth inhibition of human HT-29 cells assessed as cell growth at 3X10'-7 M after 48 hrs by sulforhodamine B assay; settings: HT-29, 48 h, read-out: Activity
[37] = tested on: M14; assay: Growth inhibition of human M14 cells assessed as cell growth at 3X10'-7 M after 48 hrs by sulforhodamine B assay; settings: M14, 48 h, read-out: Activity

Row | Structure (SMILES) | growth at 5 µM [1] [%] | growth at 5 µM [2] [%] | growth at 0.3 µM [3] [%] | growth at 30 µM [4] [%] | growth at 30 µM [6] [%] | growth at 0.003 µM [7] [%] | growth at 0.003 µM [8] [%] | growth at 0.003 µM [9] [%] | growth at 0.03 µM [10] [%] | growth at 0.3 µM [11] [%] | growth at 0.3 µM [12] [%] | growth at 3 µM [13] [%] | growth at 0.03 µM [15] [%] | growth at 0.003 µM [16] [%] | growth at 0.3 µM [17] [%] | growth at 0.3 µM [18] [%] | growth at 0.003 µM [19] [%] | growth at 0.03 µM [20] [%] | growth at 0.03 µM [21] [%] | growth at 30 µM [22] [%] | further results
1 | O=C(Nc1cccc(-n2cc(-c3ccncc3)c(-c3ccc(Cl)c(O)c3)n2)c1)c1ccc(N2CCOCC2)c(C(F)(F)F)c1 | 46 | 20 | – | – | – | – | – | – | – | – | – | – | – | – | – | – | – | – | – | – | –
2 | O=C(Nc1cccc(-n2cc(-c3ccncc3)c(-c3ccc(Cl)c(O)c3)n2)c1)Nc1cccc(C(F)(F)F)c1 | – | – | 99 | -19 | 7 | 94 | 98 | 94 | 91 | 96 | 100 | 22 | 98 | 99 | 92 | 94 | 96 | 94 | 96 | 15 | growth at 3 µM [5]: 25%; growth at 30 µM [14]: -53%; growth at 0.03 µM [23]: 96%; growth at 0.03 µM [24]: 100%; growth at 0.03 µM [25]: 94%; growth at 0.003 µM [26]: 98%; growth at 30 µM [27]: -14%; growth at 0.3 µM [28]: 97%; growth at 0.3 µM [29]: 94%; growth at 30 µM [30]: 1%; growth at 3 µM [31]: 37%; growth at 0.003 µM [32]: 99%; growth at 30 µM [33]: 1%; growth at 0.3 µM [34]: 80%; growth at 0.3 µM [35]: 101%; growth at 0.3 µM [36]: 111%; growth at 0.3 µM [37]: 100%
3 | COc1cc(-c2nn(-c3cccc(NC(=O)Nc4ccc(Cl)c(C(F)(F)F)c4)c3)cc2-c2ccncc2)ccc1Cl | – | – | 101 | -50 | 2 | 101 | 101 | 100 | 89 | 97 | 109 | 12 | 102 | 101 | 91 | 101 | 102 | 101 | 95 | -25 | growth at 30 µM [14]: -70%; growth at 0.03 µM [23]: 102%; growth at 0.03 µM [24]: 92%; growth at 0.03 µM [25]: 103%; growth at 0.003 µM [26]: 105%; growth at 30 µM [27]: -94%; growth at 0.3 µM [28]: 97%; growth at 0.3 µM [29]: 97%; growth at 30 µM [30]: -79%; growth at 3 µM [31]: 3%; growth at 0.003 µM [32]: 102%; growth at 30 µM [33]: -48%; growth at 0.3 µM [34]: 76%; growth at 0.3 µM [35]: 100%; growth at 0.3 µM [36]: 102%; growth at 0.3 µM [37]: 100%
4 | O=C(Nc1cccc(-n2cc(-c3ccncc3)c(-c3ccc(Cl)c(O)c3)n2)c1)Nc1cc(C(F)(F)F)cc(C(F)(F)F)c1 | 5 | -46 | – | – | – | – | – | – | – | – | – | – | – | – | – | – | – | – | – | – | –
5 | COc1cc(-c2nn(-c3cccc(NC(=O)c4cccc(C(F)(F)F)c4)c3)cc2-c2ccncc2)ccc1Cl | 15 | -2 | – | – | – | – | – | – | – | – | – | – | – | – | – | – | – | – | – | – | –
6 | COc1cc(-c2nn(-c3cccc(NC(=O)Nc4cc(C(F)(F)F)cc(C(F)(F)F)c4)c3)cc2-c2ccncc2)ccc1Cl | – | -50 | – | – | – | – | – | – | – | – | – | – | – | – | – | – | – | – | – | – | –
7 | COc1cc(-c2nn(-c3cccc(NC(=O)Nc4ccc(Cl)c(Cl)c4)c3)cc2-c2ccncc2)ccc1Cl | 7 | – | – | – | – | – | – | – | – | – | – | – | – | – | – | – | – | – | – | – | –
8 | COc1cc(-c2nn(-c3cccc(NC(=O)Nc4cccc(C(F)(F)F)c4)c3)cc2-c2ccncc2)ccc1Cl | 14 | -4 | – | – | – | – | – | – | – | – | – | – | – | – | – | – | – | – | – | – | –
9 | O=C(Nc1cccc(-n2cc(-c3ccncc3)c(-c3ccc(Cl)c(O)c3)n2)c1)Nc1ccc(Cl)c(Cl)c1 | – | – | 103 | -38 | 5 | 96 | 97 | 90 | 71 | 102 | 107 | 16 | 103 | 90 | 87 | 95 | 94 | 93 | 98 | -26 | growth at 3 µM [5]: 10%; growth at 0.03 µM [23]: 96%; growth at 0.03 µM [24]: 96%; growth at 0.03 µM [25]: 92%; growth at 0.003 µM [26]: 96%; growth at 30 µM [27]: -70%; growth at 0.3 µM [28]: 90%; growth at 0.3 µM [29]: 96%; growth at 30 µM [30]: -56%; growth at 3 µM [31]: 19%; growth at 0.003 µM [32]: 103%; growth at 30 µM [33]: -27%; growth at 0.3 µM [34]: 94%; growth at 0.3 µM [35]: 101%; growth at 0.3 µM [36]: 110%; growth at 0.3 µM [37]: 96%
